Measured values reported in US11814416B2, “Polypeptide capable of passing through blood-brain barrier” (SHENZHEN RUIJIAN […] COMPANY, priority 2018, dated 2023).

Key:
mice [1] = conditions: mouse, in vivo
mice [2] = conditions: mouse, in vivo, iv
mice [3] = conditions: mouse, in vivo; remark: listed apart in the source

Compound | tremor symptoms and tremor time (side effects) 30 minutes after administration (mice [1]) | antinociceptive effect 1 hour after injection (mice [2]) | duration of the maximal effect (mice [2]) | tremor symptoms and tremor time (side effects) 120 minutes after administration, compared with MVIIA (mice [1]) | onset of antinociceptive effect after nasal administration (mice [3]) | time of maximal (strongest) antinociceptive effect after administration (mice [2]) | difference from the saline group at 8 hours (mice [3]) | time after which the effect disappears (mice [3])
CSCC[C@@H]1NC(=O)[C@H](CC(C)C)NC(=O)[C@H](CCCNC(=N)N)NC(=O)[C@H](CO)NC(=O)[C@@H]2CSSC[C@@H]3NC(=O)[C@H](CO)NC(=O)CNC(=O)[C@H]([C@@H](C)O)NC(=O)[C@H](CSSC[C@H](N)C(=O)N[C@@H](CCCCN)C(=O)NCC(=O)N[C@@H](CCCCN)C(=O)NCC(=O)N[C@@H](C)C(=O)N[C@@H](CCCCN)C(=O)N2)NC(=O)[C@H](CSSC[C@@H](C(N)=O)NC(=O)[C@H](CCCCN)NC(=O)CNC(=O)[C@H](CO)NC(=O)[C@H](CCCNC(=N)N)NC3=O)NC(=O)[C@H](CC(=O)O)NC(=O)[C@H](Cc2ccc(O)cc2)NC1=O [MVIIA, reference compound] | more obvious tremor symptoms and longer tremor time | – | – | – | – | – | – | –
CKGKGAKCSRLMYDCCTGSCRSGKCGGGYGRKKRRQRRR [MVIIA-d] | lower than that of MVIIA | showed antinociceptive effects | about 4 hours | no significant differences | immediate effect | – | – | –
CKGKGAKCSRLMYDCCTGSCRSGKCGGYGRKKRRQRRR [MVIIA-c] | lower than that of MVIIA | – | about 4 hours | no significant differences | immediate effect | 3 h | still significantly different | 10 h
CKGKGAKCSRLMYDCCTGSCRSGKCGYGRKKRRQRRR [MVIIA-b] | lower than that of MVIIA | showed antinociceptive effects | about 4 hours | no significant differences | immediate effect | – | still significantly different | 10 h
CKGKGAKCSRLMYDCCTGSCRSGKCYGRKKRRQRRR [MVIIA-a] | lower than that of MVIIA | showed antinociceptive effects | about 4 hours | no significant differences | immediate effect | – | – | –
